From US20260151398A1, “COMPOUNDS FOR REDUCING CHOLESTEROL AND TREATING LIVER AND KIDNEY DISEASE” (McMaster University, priority 2021, published 2026) come the findings set out here.

Entries after “also recorded” stand apart in the source; their conditions may differ.

One assay has as its system HepG2 cells. The assay can be described thus: DiI-LDL uptake assay in HepG2 cells. The class given is cell-based, human. Here is the method: During the last 5 h of treatment (h 19 to 24) cells were exposed to DiI-LDL (10 μg/ml) and then washed with two changes of pre-warmed (37° C.) HBSS containing 20 mM HEPES prior to analysis.
The uptake and accumulation of DiI-LDL was then quantified using a fluorescent spectrophotometer (Molecular Devices). […] Live-cell staining of the LDLR was also performed in HepG2 cells exposed to DiI-LDL (FIG. 11 D).

A further assay concerns PCSK9. The assay can be described thus: Secreted PCSK9 levels in HepG2 cells (ELISA). Type of assay: cell-based, human. Here is the method:
HuH7 and HepG2 cells were routinely grown in complete Dulbecco's Modified Eagle's Medium (Gibco, Thermofisher Scientific) supplemented with 10% fetal bovine serum (Sigma-Aldrich) and 100 U/ml of penicillin and streptomycin (Sigma-Aldrich). […] All cell treatments were carried out for 24 h unless otherwise stated. Cells were transfected with a cocktail consisting of plasmid DNA (1 μg), X-tremeGENE HP (3 μl; Thermofisher Scientific) and opti-MEM (100 μl; Thermofischer Scientific) per 1 ml complete medium containing plated cells. Human PCSK9 was overexpressed using the bicistronic pIRES-EGFP plasmid; calnexin using the mPA-GFP-N1 plasmid. To block the expression of GRP78 and CD36, siGENOME smartpool siRNA was purchased from GE Dharmacon (M-008198-02 and L-010206-00-0005 respectively) and transfected using lipofectamine RNAiMAX as per manufacturer's protocol.
Secreted PCSK9 levels were assessed directly in cell culture medium of cells grown in FBS-free medium for 24 h or in the serum isolated from either mice or human subjects. Mouse PCSK9 was measured using the Quantikinine® ELISA kit (#MCP900, R&D Systems) and human PCSK9 using the PCSK9 Quantikinine® ELISA kit (#DCP900, R&D Systems). Serum ApoB levels were also quantified using ELISAs (#DAPB00, R&D Systems). Serum samples were diluted as per manufacturer's instructions.
CF, however, is a well-characterized compound having several health benefits with few known adverse effects. Achieving an optimal level of PCSK9 inhibition absent of the neuro-excitatory effect of CF, however, may be a challenge for the long-term clinical application of these findings. […] See Table 6 for the structure activity relationships of several other known xanthine-based compounds explored at varying doses in HepG2 cells for 24 h.

For the molecule `Cn1c(=O)c2c(ncn2C)n(C)c1=O` [caffeine, 1,3,7-Trimethylxanthine], the “LDLc (DiI-LDL) uptake” value in the assay on HepG2 cells (HepG2, 24 h treatment, DiI-LDL 5 h) was “increased LDLc uptake”. In addition, in the assay with HepG2 cells (HepG2 stably transfected with PCSK9 shRNA, CF 200 μM), the “LDLc uptake in PCSK9 shRNA cells” value is given as “failed to significantly increase LDLc uptake”. In the assay on PCSK9 (HepG2, CF 1 mM, listed as CF), the “PCSK9 secretion from cells transfected with CMV-driven PCSK9 vector” value was “failed to block the secretion of PCSK9; also recorded: does not affect CMV-driven PCSK9 expression”. In the assay with PCSK9 (HepG2, Ca^2+-deficient medium 48 h), the “PCSK9 secretion in Ca^2+-deficient medium” value is on record as “failed to antagonize PCSK9 secretion”.
